Assay results: paper PMC4310624 (Biochemistry, 2014)

Key:
[1] = tested on: class A or C enzymes; conditions: ref unpublished screening work, Bethel and Bonomo; cited from earlier work
[2] = tested on: E. coli DH10B pBCSK control; test: Disc diffusion assay, control strain; type: cell-based, Escherichia coli; conditions: cephalothin 30 μg and 30 μg of each inhibitor, 37 °C, 18 h
[3] = tested on: E. coli DH10B pBCSK SHV-1; test: Disc diffusion assay, SHV-1 expressing strain; type: cell-based, Escherichia coli; conditions: for zone size of cephalothin combined with the inhibitor: strain expressing SHV-1
[4] = Base hydrolysis in 1 M NaOH followed by Raman spectroscopy; type: physicochemical
[5] = target: T1, SHV-1 (Klebsiella pneumoniae, UniProt P0AD64); conditions: SHV-1, E/I = 1:10, nitrocefin assay
T1 sequence (P0AD64 22-286): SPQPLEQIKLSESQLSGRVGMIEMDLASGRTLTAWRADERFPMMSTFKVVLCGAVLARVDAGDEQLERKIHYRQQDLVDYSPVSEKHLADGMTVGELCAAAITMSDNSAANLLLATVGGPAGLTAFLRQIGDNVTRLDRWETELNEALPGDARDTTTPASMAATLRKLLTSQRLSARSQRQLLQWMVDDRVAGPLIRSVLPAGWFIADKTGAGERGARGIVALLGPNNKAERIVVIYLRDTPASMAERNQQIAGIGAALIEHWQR

SMILES: CC1(C)[C@H](C(=O)O)N2C(=O)[C@@H](CO)[C@H]2S1(=O)=O [6α-(hydroxymethyl)penicillanic acid sulfone]
- inhibition in the IC50 or MIC assays [1]: did not show any inhibition

SMILES: CC(=O)OCC1=C(C(=O)O)N2C(=O)[C@@H](NC(=O)Cc3cccs3)[C@H]2SC1 [cephalothin]
- zone diameter [2]: 34 mm
- zone diameter ([3]; cephalothin 30 μg and 30 μg of each inhibitor, 37 °C, 18 h): 6 mm

SMILES: CC1(C)[C@H](C(=O)O)N2C(=O)C[C@H]2S1(=O)=O [sulbactam]
- zone size of cephalothin combined with the inhibitor [3]: 10 mm
- time for conversion of imine to cis-enamine ([4]; 1 M NaOH, Raman, all imine converted): 60 min
- time to hydrolysis to imine (lactam ring opening, imine maximum) ([4]; 1 M NaOH, room temperature, Raman): less than 3 min
- time for iminium ion conversion to cis-enamine ([4]; base hydrolysis, as stated in abstract): 1 h
- enzyme activity against nitrocefin after reaction with inhibitor [5]: remained fully active

SMILES: C[C@]1(Cn2ccnn2)[C@H](C(=O)O)N2C(=O)C[C@H]2S1(=O)=O [tazobactam]
- zone size of cephalothin combined with the inhibitor [3]: 16 mm
